How the values were obtained:
Format in all cases: cell-based
K562 cells = experiment: K562 cell proliferation inhibition, CCK-8; conditions: K562, 4 days, Table 12, positive control dBET6
Description: The complete medium required for K562 cells is IMDM (ATCC, Product number: 30-2005) basal medium containing 10% fetal bovine serum. K562 cells were seeded in a 96-well plate at a density of 7,500 cells/well, and different concentrations of the compound of the present invention and positive control samples Alisertib (source: Bide Pharmaceuticals) and dBET6 (source: Bide Pharmaceuticals) were prepared to treat the cells. The cells were incubated at a 37° C., 5% CO2 cell culture incubator for 4 days.
Cell viability was detected using the CCK-8 kit (Beyotime, Product number: C0040) according to the manufacturer's instructions. According to the inhibition rate, GraphPad Prism software was used to calculate the IC50 value of each compound for 4 days, and the results are shown in Table 11-12.

VCaP cells = experiment: VCaP cell proliferation inhibition, CCK-8; conditions: Homo sapiens, 168 h, 7 days
From the text: The complete medium required for VCaP cells is DMEM high glucose (Gibco, Product number: 11995-065) basal medium containing 10% fetal bovine serum. […] Cell viability was detected using the CCK-8 kit (Beyotime, Product number: C0040) according to the manufacturer's instructions.

LNCaP FGC cells = experiment: LNCaP FGC cell proliferation inhibition, CCK-8; conditions: Homo sapiens, 96 h, 4 days
From the text: The complete medium required for LNCaP FGC cells is RPMI 1640 (ATCC, Product number: 30-2001) basal medium containing 10% fetal calf serum. […] Cell viability was detected using the CCK-8 kit (Beyotime, Product number: C0040) according to the manufacturer's instructions.

Structure (SMILES): Cc1nc(Nc2ncc(C(=O)Nc3c(C)cccc3Cl)s2)cc(N2CCN(CCOCCC(=O)N3CCC4(CC3)COc3cc5c(cc3O4)CN(C3CCC(=O)NC3=O)C5=O)CC2)n1 (stereo not drawn) [PROTAC 15, N-(2-chloro-6-methylphenyl)-2-((6-(4-(2-(3-(7′-(2,6-dioxopiperidin-3-yl)-6′-oxo-7′,8′-dihydro-3′H,6′H-spiro[piperidine-4,2′-[1,4]dioxino[2,3-f]isoindol]-1-yl)-3-oxopropoxy)ethyl)piperazin-1-yl)-2-methylpyrimidin-4-yl)amino)thiazole-5-carboxamide]
- IC50 (K562 cells; Homo sapiens, 96 h): 5 nM

Structure (SMILES): Cc1nc(Nc2ncc(C(=O)Nc3c(C)cccc3Cl)s2)cc(N2CCN(CCOCCC(=O)N3CC4(CCc5cc6c(cc5O4)C(=O)N(C4CCC(=O)NC4=O)C6)C3)CC2)n1 (stereo not drawn) [PROTAC 14, N-(2-chloro-6-methylphenyl)-2-((6-(4-(2-(3-(7′-(2,6-dioxopiperidin-3-yl)-8′-oxo-4′,6′,7′,8′-tetrahydro-3′H-spiro[azetidine-3,2′-pyrano[2,3-f]isoindol]-1-yl)-3-oxopropoxy)ethyl)piperazin-1-yl)-2-methylpyrimidin-4-yl)amino)thiazole-5-carboxamide]
- IC50 (K562 cells; Homo sapiens, 96 h): 57 nM

Structure (SMILES): Cc1sc2c(c1C)C(c1ccc(Cl)cc1)=N[C@@H](CC(=O)NCCCCCCCCNC(=O)COc1cccc3c1C(=O)N(C1CCC(=O)NC1=O)C3=O)c1nnc(C)n1-2 (stereo partly drawn) [dBET6, reference compound]
- IC50 (K562 cells): 1 nM

Structure (SMILES): CC1(C)C(=O)N(c2ccc(C#N)c(C(F)(F)F)c2)C(=S)N1c1ccc(C(=O)N2CCC(CN3CCC4(CC3)COc3cc5c(cc3C4)C(=O)N(C3CCC(=O)NC3=O)C5=O)CC2)c(F)c1 (stereo not drawn) [PROTAC 69]
- IC50 (VCaP cells): 4260 nM
- IC50 (LNCaP FGC cells): 3390 nM

Structure (SMILES): CC1(C)C(=O)N(c2ccc(C#N)c(C(F)(F)F)c2)C(=S)N1c1ccc(C(=O)N2CCC3(CCC(N4CCC5(CCc6cc7c(cc6O5)C(=O)N(C5CCC(=O)NC5=O)C7=O)CC4)CC3)CC2)c(F)c1 (stereo not drawn) [PROTAC 83, 4-(3-(4-(9-(7′-(2,6-dioxopiperidin-3-yl)-6′,8′-dioxo-4′,6′,7′,8′-tetrahydro-3′H-spiro[piperidine-4,2′-pyrano[2,3-f]isoindol]-1-yl)-3-azaspiro[5.5]undecane-3-carbonyl)-3-fluorophenyl)-4,4-dimethyl-5-oxo-2-thioimidazolidin-1-yl)-2-(trifluoromethyl)benzonitrile]
- IC50 (VCaP cells): 890 nM
- IC50 (LNCaP FGC cells): 2630 nM

Structure (SMILES): CC1(C)C(=O)N(c2ccc(C#N)c(C(F)(F)F)c2)C(=S)N1c1ccc(C(=O)N2CCC3(CCC(N4CCC5(CC4)COc4cc6c(cc4C5)C(=O)N(C4CCC(=O)NC4=O)C6=O)CC3)C2)c(F)c1 (stereo not drawn) [PROTAC 74, 4-(3-(4-(8-(7′-(2,6-dioxopiperidin-3-yl)-6′ 8′-dioxo-4′,6′,7′,8′-tetrahydro-2′H-spiro[piperidin-4,3′-pyrano[2,3-f]isoindol]-1-yl)-2-azaspiro[4.5]decane-2-carbonyl)-3-fluorophenyl)-4,4-dimethyl-5-oxo-2-thioimidazolidin-1-yl)-2-(trifluoromethyl)benzonitrile]
- IC50 (VCaP cells): 3260 nM
- IC50 (LNCaP FGC cells): 2660 nM

Structure (SMILES): CC1(C)C(=O)N(c2ccc(C#N)c(C(F)(F)F)c2)C(=S)N1c1ccc(C(=O)N2CC3(CC(N4CCC5(CCc6cc7c(cc6O5)C(=O)N(C5CCC(=O)NC5=O)C7=O)CC4)C3)C2)c(F)c1 (stereo not drawn) [PROTAC 85, 4-(3-(4-(6-(7′-(2,6-dioxopiperidin-3-yl)-6′,8′-dioxo-4′,6′,7′,8′-tetrahydro-3′H-spiro[piperidin-4,2′-pyrano[2,3-f]isoindol]-1-yl)-2-azaspiro[3.3]heptane-2-carbonyl)-3-fluorophenyl)-4,4-dimethyl-5-oxo-2-thioimidazolidin-1-yl)-2-(trifluoromethyl)benzonitrile]
- IC50 (VCaP cells): 620 nM
- IC50 (LNCaP FGC cells): 27900 nM

Structure (SMILES): N#Cc1ccc(O[C@H]2CC[C@H](NC(=O)c3ccc(N4CC(N5CCC6(CC5)Cc5cc7c(cc5O6)C(=O)N(C5CCC(=O)NC5=O)C7=O)C4)nn3)CC2)cc1Cl (stereo partly drawn) [PROTAC 67, N-((1r,4r)-4-(3-chloro-4-cyanophenoxy)cyclohexyl)-6-(3-(6-(2,6-dioxypiperidin-3-yl)-5,7-dioxo-3,5,6,7-tetrahydrospiro[furo[2,3-f]isoindole-2,4′-piperidin]-1′-yl)azetidin-1-yl)pyridazine-3-carboxamide]
- IC50 (VCaP cells): 6500 nM
- IC50 (LNCaP FGC cells): 6100 nM

Structure (SMILES): Cc1nc(Nc2ncc(C(=O)Nc3c(C)cccc3Cl)s2)cc(N2CCN(CCOCCC(=O)N3CC4(CCc5cc6c(cc5O4)C(=O)N(C4CCC(=O)NC4=O)C6=O)C3)CC2)n1 (stereo not drawn) [PROTAC 11, N-(2-chloro-6-methylphenyl)-2-((6-(4-(2-(3-(7′-(2,6-dioxopiperidin-3-yl)-6′,8′-dioxo-4′,6′,7′,8′-tetrahydro-3′H-spiro[azetidine-3,2′-pyrano[2,3-f]isoindol]-1-yl)-3-oxopropoxy)ethyl)piperazin-1-yl)-2-methylpyrimidin-4-yl)amino)thiazole-5-carboxamide]
- IC50 (K562 cells; Homo sapiens, 96 h): 66 nM

Structure (SMILES): N#Cc1ccc(O[C@H]2CC[C@H](NC(=O)c3ccc(N4CCC(CN5CC6(CCc7cc8c(cc7O6)C(=O)N(C6CCC(=O)NC6=O)C8=O)C5)CC4)nn3)CC2)cc1Cl (stereo partly drawn) [PROTAC 60]
- IC50 (VCaP cells): 1200 nM
- IC50 (LNCaP FGC cells): 930 nM

Structure (SMILES): CC1(C)C(=O)N(c2ccc(C#N)c(C(F)(F)F)c2)C(=S)N1c1ccc(C(=O)N2CCC(N3CCC4(CC3)COc3cc5c(cc34)C(=O)N(C3CCC(=O)NC3=O)C5=O)CC2)c(F)c1 (stereo not drawn) [PROTAC 80, 4-(3-(4-(4-(6-(2,6-dioxopiperidin-3-yl)-5,7-dioxo-6,7-dihydro-2H,5H-spiro[furo[2,3-f]isoindole-3,4′-piperidin]-1′-yl)piperidine-1-carbonyl)-3-fluorophenyl)-4,4-dimethyl-5-oxo-2-thioimidazolidin-1-yl)-2-(trifluoromethyl)benzonitrile]
- IC50 (VCaP cells): 9480 nM
- IC50 (LNCaP FGC cells): 3240 nM

Structure (SMILES): CC1(C)C(=O)N(c2ccc(C#N)c(C(F)(F)F)c2)C(=S)N1c1ccc(C(=O)N2CCC(F)(CN3CC4(CCc5cc6c(cc5O4)C(=O)N(C4CCC(=O)NC4=O)C6)C3)CC2)c(F)c1 (stereo not drawn) [PROTAC 68]
- IC50 (VCaP cells): 30 nM
- IC50 (LNCaP FGC cells): 3860 nM

Structure (SMILES): N#Cc1ccc(O[C@H]2CC[C@H](NC(=O)c3ccc(N4CCC5(CC4)CC(N4CCC6(CCc7cc8c(cc7O6)C(=O)N(C6CCC(=O)NC6=O)C8=O)CC4)C5)nn3)CC2)cc1Cl (stereo partly drawn) [PROTAC 61]
- IC50 (VCaP cells): 80 nM
- IC50 (LNCaP FGC cells): 2200 nM

Structure (SMILES): Cc1nc(Nc2ncc(C(=O)Nc3c(C)cccc3Cl)s2)cc(N2CCN(CCOCCC(=O)N3CC4(CCc5cc6c(cc5O4)CN(C4CCC(=O)NC4=O)C6=O)C3)CC2)n1 (stereo not drawn) [PROTAC 16, N-(2-chloro-6-methylphenyl)-2-((6-(4-(2-(3-(7′-(2,6-dioxopiperidin-3-yl)-6′-oxo-4′,6′,7′,8′-tetrahydro-3′H-spiro[azetidine-3,2′-pyrano[2,3-f]isoindole]-1-yl)-3-oxopropoxy)ethyl)piperazin-1-yl)-2-methylpyrimidin-4-yl)amino)thiazole-5-carboxamide]
- IC50 (K562 cells; Homo sapiens, 96 h): 48 nM

Structure (SMILES): N#Cc1ccc(O[C@H]2CC[C@H](NC(=O)c3ccc(N4CC(N5CCC6(CCc7cc8c(cc7O6)CN(C6CCC(=O)NC6=O)C8=O)CC5)C4)nn3)CC2)cc1Cl (stereo partly drawn) [PROTAC 62]
- IC50 (VCaP cells): 100 nM
- IC50 (LNCaP FGC cells): 1160 nM

Structure (SMILES): COC1(CN2CC3(COc4cc5c(cc4C3)C(=O)N(C3CCC(=O)NC3=O)C5=O)C2)CCN(C(=O)c2ccc(N3C(=S)N(c4ccc(C#N)c(C(F)(F)F)c4)C(=O)C3(C)C)cc2F)CC1 (stereo not drawn) [PROTAC 75]
- IC50 (VCaP cells): 170 nM
- IC50 (LNCaP FGC cells): 530 nM

Structure (SMILES): Cc1nc(Nc2ncc(C(=O)Nc3c(C)cccc3Cl)s2)cc(N2CCN(CCOCCC(=O)N3CCC4(CCc5cc6c(cc5O4)C(=O)N(C4CCC(=O)NC4=O)C6)CC3)CC2)n1 (stereo not drawn) [PROTAC 13, N-(2-chloro-6-methylphenyl)-2-((6-(4-(2-(3-(7′-(2,6-dioxopiperidin-3-yl)-8′-oxo-4′,6′,7′,8′-tetrahydro-3′H-spiro[piperidine-4,2′-pyrano[2,3-f]isoindole]-1-yl)-3-oxopropoxy)ethyl)piperazin-1-yl)-2-methylpyrimidin-4-yl)amino)thiazole-5-carboxamide]
- IC50 (K562 cells; Homo sapiens, 96 h): 20 nM

Structure (SMILES): CC1(C)C(=O)N(c2ccc(C#N)c(C(F)(F)F)c2)C(=S)N1c1ccc(C(=O)N2CC(N3CC4(CCc5cc6c(cc5O4)C(=O)N(C4CCC(=O)NC4=O)C6=O)C3)C2)c(F)c1 (stereo not drawn) [PROTAC 77, 4-(3-(4-(3-(7′-(2,6-dioxopiperidin-3-yl)-6′,8′-dioxo-4′,6′,7′,8′-tetrahydro-3′H-spiro [azetidine-3,2′-pyrano[2,3-f]isoindole]-1-yl)azetidine-1-carbonyl)-3-fluorophenyl)-4,4-dimethyl-5-oxo-2-thioimidazolidin-1-yl)-2-(trifluoromethyl)benzonitrile]
- IC50 (VCaP cells): 2030 nM
- IC50 (LNCaP FGC cells): 6450 nM

— patent US20250129088A1, “CEREBLON E3 UBIQUITIN LIGASE INHIBITOR” (Gan & Lee Pharmaceuticals Co., Ltd., priority 2022, published 2025)
